According to patent publication US20250042920A1 (OCEAN UNIVERSITY OF CHINA, priority 2021, published 2025):

How the values were obtained:
[1] = system: male db/db mice; assay: Insulin tolerance and liver function improvement test in male db/db mouse model; assay type: in vivo
Protocol: Six-week-old male db/db mice were randomly divided into 6 groups of 12 mice in each group: Model group (M, distilled water), metformin group (Meft, 200 mg/kg/d), lovastatin group (6 mg/kg), compound 12 low dose group (20 mg/kg/d), compound 12 middle dose group (40 mg/kg/d), compound 12 high dose group (80 mg/kg/d). They were raised in a constant temperature of 25° C. and fed and drinking freely. The mice were administrated by gavage at a dose of […] for 6 weeks, and the body weight and fasting blood glucose were measured regularly during the period.
Insulin tolerance test (ITT) was performed with […] (1.0 U/ml, 1.0 U/kg) and fasting for 4 hours in the morning. In the afternoon experiment, weight was weighed, blood glucose was measured before insulin injection, insulin injection volume was calculated according to body weight, and blood glucose was measured at 15 min, 30 min, 45 min, and 60 min. At the end of the experiment, each cage was supplemented with feed.

[2] = system: C57BL/6J male mice, high-fat diet obesity model; assay: Weight loss trial in a high-fat feeding obesity model; assay type: in vivo; conditions: obese C57BL/6J mice; 50 or 100 mg/kg daily gavage; after 1 month of treatment
Protocol: C57BL/6J male mice were fed with high-fat diet (60 kcal %) and low-fat diet (10 kcal %), respectively. After 16 weeks, the obesity model was successfully established (the body weight of high-fat diet was higher than 20% of the body weight of low-fat diet). They were divided into blank group, 12 high dose group (100 mg/kg), 12 low dose group (50 mg/kg) and orlistat group (50 mg/kg). The mice in the control group were given normal saline as the control, and the daily afternoon gavage of the drug for 4 weeks.

[3] = target: MNK1 (Homo sapiens, UniProt Q9BUB5); assay: MNK1 kinase inhibition assay (LANCE Ultra kinase activity assay, PerkinElmer); assay type: biochemical; conditions: 450 μM ATP
[4] = system: STZ+ high-fat fed type 2 diabetic Kunming mice; assay: Hypoglycemic test in STZ+ high-fat fed diabetic mouse model; assay type: in vivo; conditions: for blood glucose: gavage, 8 weeks (FIG. 1)
Protocol: A total of 50 male Kunming mice were fed in a constant temperature of 25° C. with free access to food and water. After 5 days of adaptive feeding, the mice were divided into two groups for the first time. The first group (n=10) was the blank group (C) fed with normal diet, and the rest were the second group (n=40) fed with 60% high-fat diet to induce high-fat model and free access to water for 4 weeks. At the fifth week, the mice in the second group were injected with streptozotocin (STZ) to induce type 2 diabetes model. The total injection dose was 150 mg/kg, and the feeding conditions were unchanged. Type 2 diabetic mice with blood glucose levels higher than 11 mmol/L were divided into model group (M, n=10) and […]. Distilled water), metformin group (Meft, 225 mg/kg/d), compound 12 low-dose group (2A-L, 50 mg/kg/d), compound 12 high-dose group (2A-H, 100 mg/kg/d). The […] in group M were given distilled water by gavage every morning, and the dosage was Meft: 225 mg/kg. 2A-L: 50 mg/kg; 2A-H: 100 mg/kg. The mice were administrated by gavage at a dose of […] for 8 weeks, and the body weight and fasting blood glucose were measured regularly during the period.

[5] = target: MNK2 (Homo sapiens, UniProt Q9HBH9); assay: MNK2 kinase inhibition assay (LANCE Ultra kinase activity assay, PerkinElmer); assay type: biochemical; conditions: 100 μM ATP
[6] = high-dose group (80 mg/kg/d) vs model group (FIG. 5)
[7] = compared with the model group (FIG. 3)

Chain of MNK1 (Q9BUB5 whole entry): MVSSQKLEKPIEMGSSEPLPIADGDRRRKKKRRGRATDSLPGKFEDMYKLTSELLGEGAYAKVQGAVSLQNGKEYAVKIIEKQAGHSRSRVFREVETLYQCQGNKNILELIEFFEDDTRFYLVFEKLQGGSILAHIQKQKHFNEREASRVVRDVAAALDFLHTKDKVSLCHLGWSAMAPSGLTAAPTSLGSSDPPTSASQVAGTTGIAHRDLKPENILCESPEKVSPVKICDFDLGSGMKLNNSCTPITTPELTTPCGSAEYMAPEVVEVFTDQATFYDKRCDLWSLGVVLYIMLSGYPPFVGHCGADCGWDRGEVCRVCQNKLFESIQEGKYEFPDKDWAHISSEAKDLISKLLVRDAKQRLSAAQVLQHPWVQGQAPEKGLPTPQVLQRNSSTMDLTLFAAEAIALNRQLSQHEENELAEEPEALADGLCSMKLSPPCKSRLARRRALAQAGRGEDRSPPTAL
Chain of MNK2 (Q9HBH9 whole entry): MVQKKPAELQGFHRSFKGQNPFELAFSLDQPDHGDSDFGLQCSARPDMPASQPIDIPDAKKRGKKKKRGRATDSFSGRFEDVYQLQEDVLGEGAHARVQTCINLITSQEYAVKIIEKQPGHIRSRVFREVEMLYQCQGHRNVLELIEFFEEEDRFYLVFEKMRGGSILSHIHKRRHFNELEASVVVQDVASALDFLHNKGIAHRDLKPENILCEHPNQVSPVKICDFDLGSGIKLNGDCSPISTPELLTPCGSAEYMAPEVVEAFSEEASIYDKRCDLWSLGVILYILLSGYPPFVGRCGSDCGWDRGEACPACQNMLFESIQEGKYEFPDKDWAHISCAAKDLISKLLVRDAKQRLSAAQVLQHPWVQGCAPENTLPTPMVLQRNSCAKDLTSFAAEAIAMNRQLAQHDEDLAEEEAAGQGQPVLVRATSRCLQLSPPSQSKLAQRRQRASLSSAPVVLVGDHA

`CN(C)C1CCN(C(=O)c2ccc(-c3nn4c(-c5ccc(C#N)cc5)cnc4s3)cc2)CC1` [Compound 12, 4-(2-(4-(4-(dimethylamino)piperidine-1-carbonyl)phenyl)imidazo[2,1-b][1,3,4]thiadiazol-5-yl)benzonitrile] was tested, and the “blood levels of GLP-1” value ([1]; FIG. 6) was “Increased”, the “serum content of insulin INS” value ([1]; after high dose administration (FIG. 6)) was “significantly increased” and the “inflammatory cytokine IL-6” value ([1]; at low doses (FIG. 6)) was “significantly decreased”. For the same molecule, the “inflammatory cytokine TNF” value ([1]; at low doses (FIG. 6)) was “significantly decreased”, the “plasma BNP” value ([1]; at low doses (FIG. 6)) was “significantly decreased” and the “insulin sensitivity (insulin tolerance test, ITT)” value ([1]; db/db mice, gavage 6 weeks, each drug group, especially 12 high-dose group (80 mg/kg/d) (FIG. 4)) was “significantly improved”. For the same molecule, the “serum ALT” value [1, 6] was “significant decreases”, the “serum AST” value [1, 6] was “significant decreases” and the “serum total bile acid content” value [1, 6] was “significant decreases”. For the same molecule, the body weight [2] was “decreased significantly”, the IC50 ([3]; five concentrations 10000-1 nM) was less than 50 nM and the inhibition at 1 µM ([3]; inhibition rate at 1000 nM compound, 60 min, 25° C., read-out: Inhibitory activity(1 μM) MNK1) was greater than 75%. For the same molecule, the glucose tolerance ([4]; 50 and 100 mg/kg/d (FIG. 2)) was “improved”, the “serum AST levels” value ([4]; FIG. 3) was “significantly reduced” and the “serum creatinine (CREA)” value ([4]; after administration, vs model group (FIG. 3)) was “decreased significantly”. For the same molecule, the “serum TC” value [4, 7] was “significantly decreased”, the “serum TG” value [4, 7] was “significantly decreased” and the “hypoglycemic effect compared with positive control (metformin, 225 mg/kg)” value ([4]; high dose group 100 mg/kg/d) was “better hypoglycemic effect than the positive control”. For the same molecule, the blood glucose ([4]; high dose group 100 mg/kg/d) was “significantly reduced”, the “insulin sensitivity (insulin tolerance test)” value ([4]; low and high dose groups vs model group, after intraperitoneal insulin (FIG. 2)) was “restored insulin sensitivity” and the “hypoglycemic effect compared with positive control (metformin, 225 mg/kg)” value ([4]; low dose group 50 mg/kg/d) was “equivalent to that of the positive control group”. The blood glucose ([4]; low dose group 50 mg/kg/d) was “significantly reduced”, the “reduction of TC compared with metformin” value ([4]; metformin 225 mg/kg/d) was “even better than metformin” and the IC50 ([5]; five concentrations 10000-1 nM) was less than 50 nM. It also gave an inhibition at 1 µM ([5]; inhibition rate at 1000 nM compound, 60 min, 25° C., read-out: Inhibitory activity(1 μM) MNK2) greater than 75%.
